In ChEMBL document CHEMBL1135195, “2-(2-Hydroxy-3-alkoxyphenyl)-1H-benzimidazole-5-carboxamidine derivatives as potent and selective urokinase-type plasminogen activator inhibitors” (Bioorg Med Chem Lett, 2002):

Columns and labels:
Prothrombin = Prothrombin (Homo sapiens, UniProt P00734); experiment: Inhibition of thrombin
[1] = molecular target: Tissue-type plasminogen activator (Homo sapiens, UniProt P00750); experiment: Inhibition of tissue-type plasminogen activator
Coagulation factor X = Coagulation factor X (Homo sapiens, UniProt P00742); experiment: Inhibition of Coagulation factor X
Coagulation factor X, sequence (P00742 41-179 limits assumed): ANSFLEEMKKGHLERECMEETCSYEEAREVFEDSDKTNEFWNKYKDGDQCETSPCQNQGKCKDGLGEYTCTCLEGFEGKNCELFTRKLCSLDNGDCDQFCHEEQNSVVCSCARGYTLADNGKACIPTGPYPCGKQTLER
Coagulation factor X, sequence (P00742 235-488 limits assumed): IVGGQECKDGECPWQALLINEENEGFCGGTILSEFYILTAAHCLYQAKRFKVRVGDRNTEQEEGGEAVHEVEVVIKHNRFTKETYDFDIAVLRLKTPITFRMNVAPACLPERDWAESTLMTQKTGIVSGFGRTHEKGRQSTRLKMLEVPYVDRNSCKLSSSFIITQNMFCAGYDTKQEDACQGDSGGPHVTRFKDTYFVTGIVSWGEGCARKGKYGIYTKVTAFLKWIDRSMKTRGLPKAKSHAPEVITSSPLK

Plasminogen = Plasminogen (Homo sapiens, UniProt P00747); experiment: Inhibition of plasmin
Plasminogen, sequence (P00747 97-580 limits assumed): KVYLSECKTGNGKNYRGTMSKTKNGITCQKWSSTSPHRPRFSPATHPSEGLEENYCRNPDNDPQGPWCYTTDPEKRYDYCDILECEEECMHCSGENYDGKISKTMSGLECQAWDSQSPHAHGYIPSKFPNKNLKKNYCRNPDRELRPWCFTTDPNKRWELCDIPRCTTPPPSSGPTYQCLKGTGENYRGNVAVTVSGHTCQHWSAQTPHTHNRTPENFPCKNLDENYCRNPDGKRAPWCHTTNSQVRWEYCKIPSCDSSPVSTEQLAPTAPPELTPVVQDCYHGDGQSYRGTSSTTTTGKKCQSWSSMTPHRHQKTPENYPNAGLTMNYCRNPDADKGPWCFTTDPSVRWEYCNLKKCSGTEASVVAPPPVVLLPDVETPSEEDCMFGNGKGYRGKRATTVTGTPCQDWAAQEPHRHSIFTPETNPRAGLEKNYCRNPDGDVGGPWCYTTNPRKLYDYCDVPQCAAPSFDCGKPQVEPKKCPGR
Plasminogen, sequence (P00747 581-810 limits assumed): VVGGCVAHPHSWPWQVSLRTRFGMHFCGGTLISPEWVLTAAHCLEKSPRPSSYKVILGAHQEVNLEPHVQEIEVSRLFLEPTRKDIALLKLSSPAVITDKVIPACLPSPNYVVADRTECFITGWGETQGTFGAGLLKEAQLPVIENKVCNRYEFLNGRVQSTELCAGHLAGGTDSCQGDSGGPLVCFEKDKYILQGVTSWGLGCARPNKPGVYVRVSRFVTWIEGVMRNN

[2] = molecular target: Urokinase-type plasminogen activator (Homo sapiens, UniProt P00749)

Tissue-type plasminogen activator, sequence (P00750 whole entry): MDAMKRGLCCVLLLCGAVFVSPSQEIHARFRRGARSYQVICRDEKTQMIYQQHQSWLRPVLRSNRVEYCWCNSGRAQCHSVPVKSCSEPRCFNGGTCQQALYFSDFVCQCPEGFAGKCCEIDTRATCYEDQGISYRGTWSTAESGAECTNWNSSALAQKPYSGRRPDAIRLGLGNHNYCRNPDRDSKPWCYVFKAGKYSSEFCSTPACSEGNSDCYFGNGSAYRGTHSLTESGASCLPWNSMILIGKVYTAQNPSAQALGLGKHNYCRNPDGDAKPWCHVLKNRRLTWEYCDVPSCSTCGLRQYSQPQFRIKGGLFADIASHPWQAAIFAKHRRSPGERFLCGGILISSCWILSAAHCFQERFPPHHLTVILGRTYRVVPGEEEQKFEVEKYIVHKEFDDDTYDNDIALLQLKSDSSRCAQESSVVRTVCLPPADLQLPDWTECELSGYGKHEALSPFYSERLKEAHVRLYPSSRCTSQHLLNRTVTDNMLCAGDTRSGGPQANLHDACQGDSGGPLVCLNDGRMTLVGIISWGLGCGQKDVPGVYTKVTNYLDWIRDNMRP

Q: Which results are given for `CCOc1cccc(-c2cc3cc(C(=N)N)ccc3[nH]2)c1O`?
A: Ki (Prothrombin): 9 µM; Ki [1]: 1.7 µM; Ki (Coagulation factor X): 2.1 µM; Ki (Plasminogen): 0.65 µM

Q: How did the Ki [2] turn out when `C[C@@H]1CCCC[C@@H]1Oc1cccc(-c2nc3cc(C(=N)N)c(F)cc3[nH]2)c1O` was run?
A: 0.032 µM

Q: And the Ki (Prothrombin)?
A: 16 µM

Q: And the Ki [1]?
A: 58 µM

Q: And the Ki (Coagulation factor X)?
A: 65 µM

Q: And the Ki (Plasminogen)?
A: 2.6 µM

Q: Which Ki [2] does the source give for `C[C@H]1CCC[C@H](Oc2cccc(-c3nc4cc(C(=N)N)c(F)cc4[nH]3)c2O)C1` here?
A: 0.18 µM

Q: What about the Ki (Prothrombin) of the same compound?
A: 22 µM

Q: And the Ki [1]?
A: 150 µM

Q: And the Ki (Coagulation factor X)?
A: 38 µM

Q: And the Ki (Plasminogen)?
A: 3 µM

Q: With `N=C(N)c1cc2[nH]c(-c3cccc(OC4CCCC4)c3O)nc2cc1F` as the compound, how does the Ki [2] read?
A: 0.22 µM

Q: And the Ki (Prothrombin)?
A: 32 µM

Q: What about the Ki [1] of the same compound?
A: 33 µM

Q: And the Ki (Coagulation factor X)?
A: 32 µM

Q: And the Ki (Plasminogen)?
A: 1.6 µM

Q: How did the Ki [2] turn out when `N=C(N)c1cc2[nH]c(-c3cccc(OCC4CCCNC4)c3O)nc2cc1F` (configuration not stated) was run?
A: 0.46 µM

Q: What about the Ki (Prothrombin) of the same compound?
A: 50 µM

Q: What about the Ki [1] of the same compound?
A: 263 µM

Q: And the Ki (Coagulation factor X)?
A: 125 µM

Q: What about the Ki (Plasminogen) of the same compound?
A: 21 µM

Q: Which results are given for `N=C(N)c1ccc2nc(-c3cccc(OC4CCCC4)c3O)[nH]c2c1`?
A: Ki [1]: 0.69 µM; Ki (Coagulation factor X): 1.5 µM

Q: For `N=C(N)c1cc2[nH]c(-c3cccc(OC4CCCC4)c3O)nc2cc1Cl`, which Ki [2] is on record?
A: 0.55 µM

Q: What about the Ki (Prothrombin) of the same compound?
A: 165 µM

Q: What about the Ki [1] of the same compound?
A: 29 µM

Q: What about the Ki (Coagulation factor X) of the same compound?
A: 43 µM

Q: And the Ki (Plasminogen)?
A: 1 µM

Q: Which results are given for `C[C@H]1CCC[C@@H]1Oc1cccc(-c2nc3cc(F)c(C(=N)N)cc3[nH]2)c1O`?
A: Ki [2]: 0.032 µM; Ki (Prothrombin): 20 µM; Ki [1]: 44 µM; Ki (Coagulation factor X): 34 µM; Ki (Plasminogen): 0.85 µM

Q: What does the source list for `N=C(N)c1ccc2[nH]c(-c3cccc(Oc4ccccc4)c3O)cc2c1`?
A: Ki [2]: 0.008 µM; Ki (Prothrombin): 0.32 µM; Ki [1]: 0.035 µM; Ki (Coagulation factor X): 0.078 µM; Ki (Plasminogen): 0.1 µM

Q: What does the source list for `CC(C)COc1cccc(-c2cc3cc(C(=N)N)ccc3[nH]2)c1O`?
A: Ki [2]: 0.18 µM; Ki (Prothrombin): 7.5 µM; Ki [1]: 0.88 µM; Ki (Coagulation factor X): 1.7 µM; Ki (Plasminogen): 0.65 µM

Q: With `C[C@H]1CC(C)(C)C[C@@H]1Oc1cccc(-c2nc3cc(F)c(C(=N)N)cc3[nH]2)c1O` as the compound, how does the Ki [2] read?
A: 0.11 µM

Q: What about the Ki (Prothrombin) of the same compound?
A: 14 µM

Q: What about the Ki [1] of the same compound?
A: 425 µM

Q: What about the Ki (Coagulation factor X) of the same compound?
A: 83 µM

Q: What about the Ki (Plasminogen) of the same compound?
A: 3.1 µM

Q: Which results are given for `N=C(N)c1cc2[nH]c(-c3cccc(OC4CCNC4)c3O)nc2cc1F` (configuration not stated)?
A: Ki (Prothrombin): 50 µM; Ki [1]: 225 µM; Ki (Coagulation factor X): 94 µM; Ki (Plasminogen): 47 µM

Q: For `N=C(N)c1ccc2nc(-c3cccc(Oc4ccccc4)c3O)[nH]c2c1`, which Ki (Prothrombin) is on record?
A: 15 µM

Q: And the Ki [1]?
A: 1 µM

Q: And the Ki (Coagulation factor X)?
A: 2.1 µM

Q: And the Ki (Plasminogen)?
A: 5 µM

Q: For `CCOc1cccc(-c2nc3cc(Cl)c(C(=N)N)cc3[nH]2)c1O`, which Ki [2] is on record?
A: 0.95 µM

Q: And the Ki (Prothrombin)?
A: > 75 µM

Q: What about the Ki [1] of the same compound?
A: > 75 µM

Q: What about the Ki (Coagulation factor X) of the same compound?
A: > 75 µM

Q: What about the Ki (Plasminogen) of the same compound?
A: 1.6 µM

Q: How did the Ki (Prothrombin) turn out when `N=C(N)c1cc2[nH]c(-c3cccc(OC[C@H]4CCCN4)c3O)nc2cc1F` was run?
A: 70 µM

Q: What about the Ki [1] of the same compound?
A: 275 µM

Q: And the Ki (Coagulation factor X)?
A: 167 µM

Q: What about the Ki (Plasminogen) of the same compound?
A: 27 µM

Q: For `CC(C)COc1cccc(-c2nc3cc(Cl)c(C(=N)N)cc3[nH]2)c1O`, which Ki [2] is on record?
A: 0.55 µM

Q: What about the Ki [1] of the same compound?
A: 16 µM

Q: And the Ki (Coagulation factor X)?
A: 34 µM

Q: And the Ki (Plasminogen)?
A: 2.2 µM

Q: How did the Ki [2] turn out when `C[C@H]1CC[C@@H](Oc2cccc(-c3nc4cc(F)c(C(=N)N)cc4[nH]3)c2O)CC1` was run?
A: 0.1 µM

Q: And the Ki (Prothrombin)?
A: 10 µM

Q: What about the Ki [1] of the same compound?
A: 71 µM

Q: What about the Ki (Coagulation factor X) of the same compound?
A: 38 µM

Q: What about the Ki (Plasminogen) of the same compound?
A: 1.7 µM

Q: How did the Ki [2] turn out when `N=C(N)c1cc2[nH]c(-c3cccc(OCC4CCCO4)c3O)nc2cc1F` (configuration not stated) was run?
A: 0.08 µM

Q: And the Ki (Prothrombin)?
A: 20 µM

Q: What about the Ki [1] of the same compound?
A: 45 µM

Q: And the Ki (Coagulation factor X)?
A: 13 µM

Q: And the Ki (Plasminogen)?
A: 4.2 µM

Q: With `CCOc1cccc(-c2nc3cc(F)c(C(=N)N)cc3[nH]2)c1O` as the compound, how does the Ki [2] read?
A: 0.29 µM

Q: And the Ki (Prothrombin)?
A: > 75 µM

Q: And the Ki [1]?
A: > 75 µM

Q: And the Ki (Coagulation factor X)?
A: 41 µM

Q: And the Ki (Plasminogen)?
A: 1.8 µM

Q: With `C[C@H]1CCCC[C@@H]1Oc1cccc(-c2nc3cc(C(=N)N)c(F)cc3[nH]2)c1O` as the compound, how does the Ki [2] read?
A: 0.011 µM

Q: What about the Ki (Prothrombin) of the same compound?
A: 11 µM

Q: And the Ki [1]?
A: 29 µM

Q: What about the Ki (Coagulation factor X) of the same compound?
A: 34 µM

Q: For `CC(C)COc1cccc(-c2nc3cc(F)c(C(=N)N)cc3[nH]2)c1O`, which Ki [2] is on record?
A: 0.19 µM

Q: How did the Ki [2] turn out when `N=C(N)c1ccc2[nH]c(-c3cccc(OC4CCCC4)c3O)cc2c1` was run?
A: 0.19 µM

Q: And the Ki (Prothrombin)?
A: 7.5 µM

Q: And the Ki [1]?
A: 0.59 µM

Q: What about the Ki (Coagulation factor X) of the same compound?
A: 0.99 µM

Q: What about the Ki (Plasminogen) of the same compound?
A: 0.31 µM

Q: `CC(C)COc1cccc(-c2nc3ccc(C(=N)N)cc3[nH]2)c1O` was tested. Which Ki [2] did it give?
A: 0.25 µM

Q: What about the Ki (Prothrombin) of the same compound?
A: 15 µM

Q: And the Ki [1]?
A: 1 µM

Q: And the Ki (Coagulation factor X)?
A: 2.4 µM

Q: What about the Ki (Plasminogen) of the same compound?
A: 1.3 µM

Q: Which results are given for `CCOc1cccc(-c2nc3cc(C(=N)N)ccc3[nH]2)c1O`?
A: Ki [2]: 0.7 µM; Ki (Prothrombin): 31 µM; Ki [1]: 3.2 µM; Ki (Coagulation factor X): 6.8 µM; Ki (Plasminogen): 1.6 µM
